Assay results: patent US12617779B2, “Self degradation-type CDK9 inhibitor prodrug and liposome encapsulating same” (Sumitomo Pharma Co., Ltd., priority 2021, dated 2026)

Assay: Evaluation of conversion rate to active form in buffer solution (Experimental Example 1)
Format: physicochemical
Settings: for Production rate of Alvocidib / Residual rate: 25 umol/L in buffer solution; for Stability in buffer solution at pH 5: pH 5, 37° C., up to 2 or 3 hours; for Conversion to Alvocidib at pH 7.4: pH 7.4, 37° C., up to 3 hours
Outline: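 HPLC read-out: residual parent and Alvocidib production rate after 0, 0.5, 1, 2 and 3 hours. Compounds sat at 25 umol/L, 37° C, in buffers from pH 5.0 to 7.4 (50 mM citrate below pH 6.0, 50 mM phosphate otherwise).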

In the case of `CN1CC[C@H](c2c(OC(=O)N(C)CC3CCCCN3)cc(O)c3c(=O)cc(-c4ccccc4Cl)oc23)[C@H](O)C1` (stereo partly drawn) [Example 8, 2-(2-chlorophenyl)-5-hydroxy-8-[(3S,4R)-3-hydroxy-1-methylpiperidin-4-yl]-4-oxo-4H-1-benzopyran-7-yl methyl[(piperidin-2-yl)methyl]carbamate], the “Production rate of Alvocidib” value (pH5.0, 0 hr, 37° C.) is reported as 0.7%, the Residual rate (pH5.0, 0 hr, 37° C.) is reported as 95.4% and the “Stability in buffer solution at pH 5” value is reported as “stable”. The “Production rate of Alvocidib” value (pH5.0, 0.5 hr, 37° C.) was 1.2%, the Residual rate (pH5.0, 0.5 hr, 37° C.) was 95.1% and the “Production rate of Alvocidib” value (pH5.0, 1 hr, 37° C.) was 1.6%. The Residual rate (pH5.0, 1 hr, 37° C.) was 95.0%, the “Production rate of Alvocidib” value (pH5.0, 2 hr, 37° C.) was 2.0% and the Residual rate (pH5.0, 2 hr, 37° C.) was 94.7%. For the same molecule, the “Production rate of Alvocidib” value (pH5.5, 0 hr, 37° C.) was 0.5%, the Residual rate (pH5.5, 0 hr, 37° C.) was 95.9% and the “Production rate of Alvocidib” value (pH5.5, 0.5 hr, 37° C.) was 1.6%. The Residual rate (pH5.5, 0.5 hr, 37° C.) was 95.0%, the “Production rate of Alvocidib” value (pH5.5, 1 hr, 37° C.) was 2.5% and the Residual rate (pH5.5, 1 hr, 37° C.) was 94.3%. For the same molecule, the “Production rate of Alvocidib” value (pH5.5, 2 hr, 37° C.) was 3.5%, the Residual rate (pH5.5, 2 hr, 37° C.) was 93.4% and the “Production rate of Alvocidib” value (pH6.0, 0 hr, 37° C.) was 0.8%. The Residual rate (pH6.0, 0 hr, 37° C.) was 95.7%, the “Production rate of Alvocidib” value (pH6.0, 0.5 hr, 37° C.) was 4.4% and the Residual rate (pH6.0, 0.5 hr, 37° C.) was 92.1%. The “Production rate of Alvocidib” value (pH6.0, 1 hr, 37° C.) was 7.3%, the Residual rate (pH6.0, 1 hr, 37° C.) was 89.4% and the “Production rate of Alvocidib” value (pH6.0, 2 hr, 37° C.) was 10.3%. For the same molecule, the Residual rate (pH6.0, 2 hr, 37° C.) was 86.5%, the “Production rate of Alvocidib” value (pH6.5, 0 hr, 37° C.) was 1.5% and the Residual rate (pH6.5, 0 hr, 37° C.) was 95.0%. The “Production rate of Alvocidib” value (pH6.5, 0.5 hr, 37° C.) was 11.2%, the Residual rate (pH6.5, 0.5 hr, 37° C.) was 85.3% and the “Production rate of Alvocidib” value (pH6.5, 1 hr, 37° C.) was 18.9%. The Residual rate (pH6.5, 1 hr, 37° C.) was 77.7%, the “Production rate of Alvocidib” value (pH6.5, 2 hr, 37° C.) was 25.6% and the Residual rate (pH6.5, 2 hr, 37° C.) was 71.2%. The “Production rate of Alvocidib” value (pH7.0, 0 hr, 37° C.) was 4.0%, the Residual rate (pH7.0, 0 hr, 37° C.) was 92.5% and the “Production rate of Alvocidib” value (pH7.0, 0.5 hr, 37° C.) was 27.3%. For the same molecule, the Residual rate (pH7.0, 0.5 hr, 37° C.) was 69.3%, the “Production rate of Alvocidib” value (pH7.0, 1 hr, 37° C.) was 40.0% and the Residual rate (pH7.0, 1 hr, 37° C.) was 56.7%. For the same molecule, the “Production rate of Alvocidib” value (pH7.0, 2 hr, 37° C.) was 48.2%, the Residual rate (pH7.0, 2 hr, 37° C.) was 49.0% and the “Production rate of Alvocidib” value (pH7.4, 0 hr, 37° C.) was 9.7%. For the same molecule, the Residual rate (pH7.4, 0 hr, 37° C.) was 86.7%, the “Conversion to Alvocidib at pH 7.4” value was “rapidly converted to Alvocidib” and the “Production rate of Alvocidib” value (pH7.4, 0.5 hr, 37° C.) was 45.1%. For the same molecule, the Residual rate (pH7.4, 0.5 hr, 37° C.) was 51.4%, the “Production rate of Alvocidib” value (pH7.4, 1 hr, 37° C.) was 55.2% and the Residual rate (pH7.4, 1 hr, 37° C.) was 41.7%. The “Production rate of Alvocidib” value (pH7.4, 2 hr, 37° C.) was 58.2% and the Residual rate (pH7.4, 2 hr, 37° C.) was 38.4%.

For `CCCN(CC1CCCCN1)C(=O)Oc1cc(O)c2c(=O)cc(-c3ccccc3Cl)oc2c1[C@H]1CCN(C)C[C@H]1O` (stereo partly drawn) [Example 9, 2-(2-chlorophenyl)-5-hydroxy-8-[(3S,4R)-3-hydroxy-1-methylpiperidin-4-yl]-4-oxo-4H-1-benzopyran-7-yl [(piperidin-2-yl)methyl]propylcarbamate], the “Efficiency of conversion to Alvocidib” value (buffer solution, 37° C.) was “higher efficiency”, the “Production rate of Alvocidib” value (pH5.0, 0 hr, 37° C.) was 1.4% and the Residual rate (pH5.0, 0 hr, 37° C.) was 96.2%. For the same molecule, the “Stability in buffer solution at pH 5” value was “stable”, the “Production rate of Alvocidib” value (pH5.0, 0.5 hr, 37° C.) was 1.7% and the Residual rate (pH5.0, 0.5 hr, 37° C.) was 95.9%. For the same molecule, the “Production rate of Alvocidib” value (pH5.0, 1 hr, 37° C.) was 2.1%, the Residual rate (pH5.0, 1 hr, 37° C.) was 95.6% and the “Production rate of Alvocidib” value (pH5.0, 2 hr, 37° C.) was 2.8%. The Residual rate (pH5.0, 2 hr, 37° C.) was 94.9%, the “Production rate of Alvocidib” value (pH5.0, 3 hr, 37° C.) was 3.6% and the Residual rate (pH5.0, 3 hr, 37° C.) was 94.0%. For the same molecule, the “Production rate of Alvocidib” value (pH5.5, 0 hr, 37° C.) was 1.4%, the Residual rate (pH5.5, 0 hr, 37° C.) was 96.2% and the “Production rate of Alvocidib” value (pH5.5, 0.5 hr, 37° C.) was 2.4%. For the same molecule, the Residual rate (pH5.5, 0.5 hr, 37° C.) was 95.2%, the “Production rate of Alvocidib” value (pH5.5, 1 hr, 37° C.) was 3.4% and the Residual rate (pH5.5, 1 hr, 37° C.) was 94.4%. The “Production rate of Alvocidib” value (pH5.5, 2 hr, 37° C.) was 5.2%, the Residual rate (pH5.5, 2 hr, 37° C.) was 92.5% and the “Production rate of Alvocidib” value (pH5.5, 3 hr, 37° C.) was 7.2%. The Residual rate (pH5.5, 3 hr, 37° C.) was 90.5%, the “Production rate of Alvocidib” value (pH6.0, 0 hr, 37° C.) was 1.5% and the Residual rate (pH6.0, 0 hr, 37° C.) was 96.2%. The “Production rate of Alvocidib” value (pH6.0, 0.5 hr, 37° C.) was 4.9%, the Residual rate (pH6.0, 0.5 hr, 37° C.) was 92.9% and the “Production rate of Alvocidib” value (pH6.0, 1 hr, 37° C.) was 8.2%. For the same molecule, the Residual rate (pH6.0, 1 hr, 37° C.) was 89.5%, the “Production rate of Alvocidib” value (pH6.0, 2 hr, 37° C.) was 14.4% and the Residual rate (pH6.0, 2 hr, 37° C.) was 83.0%. The “Production rate of Alvocidib” value (pH6.0, 3 hr, 37° C.) was 20.8%, the Residual rate (pH6.0, 3 hr, 37° C.) was 76.6% and the “Production rate of Alvocidib” value (pH6.5, 0 hr, 37° C.) was 1.7%. The Residual rate (pH6.5, 0 hr, 37° C.) was 95.9%, the “Production rate of Alvocidib” value (pH6.5, 0.5 hr, 37° C.) was 11.2% and the Residual rate (pH6.5, 0.5 hr, 37° C.) was 86.4%. For the same molecule, the “Production rate of Alvocidib” value (pH6.5, 1 hr, 37° C.) was 20.2%, the Residual rate (pH6.5, 1 hr, 37° C.) was 77.3% and the “Production rate of Alvocidib” value (pH6.5, 2 hr, 37° C.) was 35.4%. For the same molecule, the Residual rate (pH6.5, 2 hr, 37° C.) was 61.9%, the “Production rate of Alvocidib” value (pH6.5, 3 hr, 37° C.) was 49.0% and the Residual rate (pH6.5, 3 hr, 37° C.) was 48.4%. For the same molecule, the “Production rate of Alvocidib” value (pH7.0, 0 hr, 37° C.) was 2.2%, the Residual rate (pH7.0, 0 hr, 37° C.) was 95.4% and the “Production rate of Alvocidib” value (pH7.0, 0.5 hr, 37° C.) was 24.1%. The Residual rate (pH7.0, 0.5 hr, 37° C.) was 73.1%, the “Production rate of Alvocidib” value (pH7.0, 1 hr, 37° C.) was 42.0% and the Residual rate (pH7.0, 1 hr, 37° C.) was 55.1%. The “Production rate of Alvocidib” value (pH7.0, 2 hr, 37° C.) was 66.1%, the Residual rate (pH7.0, 2 hr, 37° C.) was 31.0% and the “Production rate of Alvocidib” value (pH7.0, 3 hr, 37° C.) was 81.0%. For the same molecule, the Residual rate (pH7.0, 3 hr, 37° C.) was 16.7%, the “Production rate of Alvocidib” value (pH7.4, 0 hr, 37° C.) was 3.4% and the Residual rate (pH7.4, 0 hr, 37° C.) was 94.3%. For the same molecule, the “Conversion to Alvocidib at pH 7.4” value was “rapidly converted to Alvocidib”, the “Production rate of Alvocidib” value (pH7.4, 0.5 hr, 37° C.) was 48.7% and the Residual rate (pH7.4, 0.5 hr, 37° C.) was 48.7%. The “Production rate of Alvocidib” value (pH7.4, 1 hr, 37° C.) was 73.6%, the Residual rate (pH7.4, 1 hr, 37° C.) was 23.7% and the “Production rate of Alvocidib” value (pH7.4, 2 hr, 37° C.) was 92.4%. The Residual rate (pH7.4, 2 hr, 37° C.) was 5.6%, the “Production rate of Alvocidib” value (pH7.4, 3 hr, 37° C.) was 96.7% and the Residual rate (pH7.4, 3 hr, 37° C.) was 1.1%.
